According to US20060213838A1, “Elution test method and apparatus” (SHIMADZU CORPORATION, priority 2005, published 2006):

Legend:
[1] = change with time of residual concentration of specific component A in test liquid (HPLC); type: physicochemical; settings: 50 mM phosphoric acid buffer solution pH6.8, 37° C., initial 0.1 mg/mL
Protocol: The specific component A is an unstable pharmaceutical in an elution test under neutral condition and is sodium rabepranazole. The test liquid used to the elution test is a 50 mM phosphoric acid buffer solution (pH6.8, 37° C.) in order to neutralize the elution condition for the specific component A.

[2] = elution test of the preparation by absorbance measurement method; type: physicochemical; settings: preparation C containing impurity component B, six specimens
Text: The following describes a method for determining the specific component A alone while eliminating the influence of the impurity component B that hinders determination from the test liquid into which the specific component A and the impurity component B are eluted from the preparation C
The wavelengths to be set are 234 nm (λ1) and 287 nm (λ2) as isosbestic point wavelengths in a system including the specific component A and its decomposed matter in the preparation C. Assuming that the absorbances of the specific component A as A234nm(t) and A287nm(t) and the absorbances of the impurity component B as B234nm(t) and B287nm(t), the absorbances of the synthesis spectrum C234nm(t) and C287nm(t) will be represented as follows. C234nm(t)=A234nm(t)+B234nm(t) (3) C287nm(t)=A287nm(t)+B287nm(t) (4) Considering the spectrum of the impurity component B, the ratio of absorbance of the wavelengths of 234 nm and 287 nm is constant and independent of time (or concentration). This obtains the expression (5). B234nm(t)/B287nm(t)=k (5)
k and k′ are constants. From the absorbance measurement values at two isosbestic point wavelengths of the elution test liquid, the concentration of the specific component A alone is obtained by solving the simultaneous equation of the expression (7) and (8). […]

COCCCOc1ccnc(C[S+]([O-])c2nc3ccccc3[n-]2)c1C.[Na+] (stereo not shown) [specific component A, sodium rabepranazole]
time for residual concentration to decrease to half the initial concentration [1]: ≤ 40 min
residual concentration of the specific component A ([1]; within 40 minutes): 0.05 mg/mL
elution ratio ([2]; double-wavelength absorbance measurement method (234 nm and 287 nm)): around 100%
elution ratio ([2]; single-wavelength absorbance measurement method (234 nm)): 140%
